Patent publication EP1285919A1, “C10 Carbonate substituted taxanes as antitumor agents” (Florida State University Research Foundation, Inc., priority 2001, dated 2003)

Columns and labels:
blood cell populations = assay: Effect of oral treatment on blood cell populations, body weight and tumor weight in the MX-1 study; format: in vivo, nu/nu mice; conditions: Group 3: 73 mg/kg single oral bolus
Experimental: Antitumor compounds were administered orally in a study to investigate whether such formulations are efficacious against the MX-1 human breast carcinoma xenograft. The compounds were prepared in the following vehicle: 90% saline, 5% Cremophor, and 5% ethanol. Antitumor compound 1771 was formulated as described for Solution 1 in Example 6. Antitumor compound 1781 was formulated as described for Solution 2 in Example 6.
Female nu/nu mice (11-12 weeks of age; implanted subcutaneously with 1 mm^3 MX-1 human breast carcinoma fragments in the flank) were sorted into one control (n=10) and two treatment (n=6) groups (group mean tumor size of 47-49 mg). Treatment groups are detailed in Table 14.
In addition to survival and tumor regression responses, the effect of treatment on blood cell populations was assessed. The major effect of these antitumor compounds on blood cell populations was a marked reduction in the neutrophil cell number. Monocyte depletion correlated fairly well with neutrophil reduction for each antitumor compound. […] There was a correlation between antitumor activity and reduced neutrophil count. In general, toxicity (as determined by neutrophil depletion) and weight loss correlated with efficacy. Importantly, the toxicities observed with the very efficacious antitumor compounds were manageable and reversible; neutrophil count and body weight rebounded from their nadirs in just a few days. Table 15 summarized the weight reduction, neutrophil and monocyte measurements on Day 4, with tumor weight reduction calculated at Day 18: Table 15

[1] = test system: NCI-H1299 (H1299) carcinoma
Experimental: In Vivo Evaluation of Antitumor Compounds Against Human Lung Carcinoma Xenografts
The compounds were prepared in the manner as described for Solution 2 of Example 10. Taxol (paclitaxel, Bristol Meyers Squibb), used as a control, was obtained as the marketed pharmaceutical drug.
Taxol itself was given as a split i.v. dose of 36 mg/kg, with the two 18 mg/kg doses separated by one hour. Vehicle control animals were dosed twice intravenously with half the total volume being given separated by one hour. The study was terminated on Day 60.
The results are summarized in Table 1 and include mean days of survival (MDS), number of toxic deaths, number of survivors, number of complete or partial responses, and number with stable disease. The mean days of survival is the number of days after which a SKMES neoplasm reached a size of 1.5 g and the animal was euthanized. A complete response is obtained if the tumor is not palpable at the end of the study. A partial response is obtained if the tumor shrinks to a size smaller than its size on Day 1 of the study.
A tumor scoring system was designed to provide a more quantitative ranking of efficacy (therapeutic potential) among the antitumor agents evaluated against the different human solid tumor xenografts. Each mouse in a study was given a score of from 1 to 10 at the end of the study. The scores can be summarized as follows:
The individual score for each mouse was averaged into a mean score for each treatment group. […]
The treatment protocol for the H1299 test was identical to the SK-MES test protocol. […]

Row | SMILES | Monocytes (K/µL) (blood cell populations; Day 4) | Neutrophils (K/µL) (blood cell populations; Day 4) | % Reduction (Neutrophils) (blood cell populations; Day 4, vs vehicle) | Weight (blood cell populations; MX-1 tumor weight, Day 18) | % Reduction (Weight) (blood cell populations; tumor weight reduction calculated at Day 18, vs vehicle) | survival extension compared to vehicle-treated animals ([1]; Taxol 36 mg/kg i.v., five animals) | MDS (n) ([1]; mean days of survival, i.v. split dose qd x 1, Taxol 36 mg/kg, 1755 49 mg/kg, six mice per group) | Complete Response ([1]; number of mice of six) | Stable Disease ([1]; number of mice of six) | Survivors ([1]; number of mice of six) | Toxic Deaths ([1]; number of mice of six, i.v. split dose qd x 1, Taxol 36 mg/kg, 1755 49 mg/kg) | Mean Score ([1]; tumor score 1 to 10 per mouse, averaged per group)
1 | CCOC(=O)O[C@H]1C(=O)[C@@]2(C)[C@H]([C@H](OC(=O)c3ccccc3)[C@]3(O)C[C@H](OC(=O)[C@H](O)[C@H](C=C(C)C)NC(=O)OC(C)(C)C)C(C)=C1C3(C)C)[C@]1(OC(C)=O)CO[C@@H]1C[C@@H]2O [Compound 1781] | 0.101 K/µL | 0.117 K/µL | 87.2% | 275.3 mg | 68.3% |  |  |  |  |  |  | 
2 | CC(=O)O[C@H]1C(=O)[C@@]2(C)[C@H]([C@H](OC(=O)c3ccccc3)[C@]3(O)C[C@H](OC(=O)[C@H](O)[C@@H](NC(=O)c4ccccc4)c4ccccc4)C(C)=C1C3(C)C)[C@]1(OC(C)=O)CO[C@@H]1C[C@@H]2O [Taxol] |  |  |  |  |  | 10% | 27.0 ± 4.6 (5) days | 0 | 0 | 1 | 0 | 2.7 ± 1.3
